Source: PubChem BioAssay AID2060890 (Molecular Pharmacology Branch, DTP, NCI, 2025)

System: LG0703-F948-PDC complex spheroid viability
Assay: Anticancer human tumor LG0703-F948-PDC patient-derived lung adenocarcinoma cell line growth inhibition [RAS]
Details: for IC50: curve of first compound; for viability, T/C: stronger effect = lower value
Summary of the method: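 Agents were tested in combination matrices in half-log decrements from a top concentration at or near clinical Cmax (10 microM if undetermined). Targets were multi-cell spheroids of tumour lines plus HUVEC and MSC stromal cells.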
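Note: spheroids exposed to agents for 7 days.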
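Throughout, for viability, T/C: 100% = DMSO vehicle wells.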

**Q.** `CC1(C)CCC(Nc2ncc(C(F)(F)F)c(-c3c[nH]c4c(P(C)(C)=O)c(C#N)ccc34)n2)CN1` (centres undefined) + C=CC(=O)N1CCN(c2nc(OCC3CCCN3C)nc3c(F)c(-c4nc(N)cc(C)c4C(F)(F)F)c(Cl)cc23)C(C)C1 was tested. Which IC50 (second compound 0.00316 µM) did it give?
**A.** Its IC50 is over 300 nM.

**Q.** What about the IC50 (second compound 0.01 µM) of the same molecule?
**A.** Its IC50 is over 300 nM.

**Q.** And the IC50 (second compound 0.0316 µM)?
**A.** Its IC50 is over 300 nM.

**Q.** And the IC50 (second compound 0.1 µM)?
**A.** Its IC50 is over 300 nM.

**Q.** What about the IC50 (second compound 0.316 µM) of the same molecule?
**A.** The IC50 was over 300 nM.

**Q.** What about the IC50 (second compound 1 µM) of the same molecule?
**A.** Its IC50 is over 300 nM.

**Q.** What about the viability, T/C (second compound 0.00316 µM, first compound 0.000949 µM) of the same molecule?
**A.** Its viability, T/C is 84.1%.

**Q.** And the viability, T/C (second compound 0.00316 µM, first compound 0.003 µM)?
**A.** Its viability, T/C is 76.8%.

**Q.** What about the viability, T/C (second compound 0.00316 µM, first compound 0.00949 µM) of the same molecule?
**A.** Its viability, T/C is 63.5%.

**Q.** And the viability, T/C (second compound 0.00316 µM, first compound 0.03 µM)?
**A.** The viability, T/C was 62.8%.

**Q.** And the viability, T/C (second compound 0.00316 µM, first compound 0.0949 µM)?
**A.** Its viability, T/C is 57%.

**Q.** And the viability, T/C (second compound 0.00316 µM, first compound 0.3 µM)?
**A.** The viability, T/C was 57.3%.

**Q.** And the viability, T/C (second compound 0.01 µM, first compound 0.000949 µM)?
**A.** The viability, T/C was 88.5%.

**Q.** And the viability, T/C (second compound 0.01 µM, first compound 0.003 µM)?
**A.** The viability, T/C was 78.8%.

**Q.** And the viability, T/C (second compound 0.01 µM, first compound 0.00949 µM)?
**A.** Its viability, T/C is 67%.

**Q.** What about the viability, T/C (second compound 0.01 µM, first compound 0.03 µM) of the same molecule?
**A.** The viability, T/C was 52.9%.

**Q.** And the viability, T/C (second compound 0.01 µM, first compound 0.0949 µM)?
**A.** Its viability, T/C is 58.7%.

**Q.** And the viability, T/C (second compound 0.01 µM, first compound 0.3 µM)?
**A.** The viability, T/C was 62%.

**Q.** And the viability, T/C (second compound 0.0316 µM, first compound 0.000949 µM)?
**A.** Its viability, T/C is 94%.

**Q.** What about the viability, T/C (second compound 0.0316 µM, first compound 0.003 µM) of the same molecule?
**A.** Its viability, T/C is 71.4%.

**Q.** And the viability, T/C (second compound 0.0316 µM, first compound 0.00949 µM)?
**A.** The viability, T/C was 68.8%.

**Q.** What about the viability, T/C (second compound 0.0316 µM, first compound 0.03 µM) of the same molecule?
**A.** Its viability, T/C is 53.2%.

**Q.** What about the viability, T/C (second compound 0.0316 µM, first compound 0.0949 µM) of the same molecule?
**A.** Its viability, T/C is 54.7%.

**Q.** And the viability, T/C (second compound 0.0316 µM, first compound 0.3 µM)?
**A.** Its viability, T/C is 62.1%.

**Q.** And the viability, T/C (second compound 0.1 µM, first compound 0.000949 µM)?
**A.** Its viability, T/C is 82.3%.

**Q.** And the viability, T/C (second compound 0.1 µM, first compound 0.003 µM)?
**A.** Its viability, T/C is 77.1%.

**Q.** And the viability, T/C (second compound 0.1 µM, first compound 0.00949 µM)?
**A.** Its viability, T/C is 55.9%.

**Q.** And the viability, T/C (second compound 0.1 µM, first compound 0.03 µM)?
**A.** The viability, T/C was 52.9%.

**Q.** What about the viability, T/C (second compound 0.1 µM, first compound 0.0949 µM) of the same molecule?
**A.** The viability, T/C was 58.4%.

**Q.** And the viability, T/C (second compound 0.1 µM, first compound 0.3 µM)?
**A.** The viability, T/C was 65.3%.

**Q.** And the viability, T/C (second compound 0.316 µM, first compound 0.000949 µM)?
**A.** The viability, T/C was 98.4%.

**Q.** What about the viability, T/C (second compound 0.316 µM, first compound 0.003 µM) of the same molecule?
**A.** The viability, T/C was 78.5%.

**Q.** And the viability, T/C (second compound 0.316 µM, first compound 0.00949 µM)?
**A.** The viability, T/C was 62.2%.

**Q.** What about the viability, T/C (second compound 0.316 µM, first compound 0.03 µM) of the same molecule?
**A.** Its viability, T/C is 62%.

**Q.** What about the viability, T/C (second compound 0.316 µM, first compound 0.0949 µM) of the same molecule?
**A.** Its viability, T/C is 58.8%.

**Q.** What about the viability, T/C (second compound 0.316 µM, first compound 0.3 µM) of the same molecule?
**A.** The viability, T/C was 67.3%.

**Q.** And the viability, T/C (second compound 1 µM, first compound 0.000949 µM)?
**A.** The viability, T/C was 84.8%.

**Q.** And the viability, T/C (second compound 1 µM, first compound 0.003 µM)?
**A.** The viability, T/C was 77.8%.

**Q.** And the viability, T/C (second compound 1 µM, first compound 0.00949 µM)?
**A.** The viability, T/C was 64.5%.

**Q.** What about the viability, T/C (second compound 1 µM, first compound 0.03 µM) of the same molecule?
**A.** Its viability, T/C is 57.4%.

**Q.** And the viability, T/C (second compound 1 µM, first compound 0.0949 µM)?
**A.** The viability, T/C was 66.1%.

**Q.** What about the viability, T/C (second compound 1 µM, first compound 0.3 µM) of the same molecule?
**A.** The viability, T/C was 59.9%.

**Q.** Which results are given for `CCN1CCN(Cc2ccc(Nc3ncc(F)c(-c4cc(F)c5nc(C)n(C(C)C)c5c4)n3)nc2)CC1` + CCn1c(-c2cccnc2C(C)OC)c2c3cc(ccc31)N1CCOC(CC(NC(=O)C(C(C)C)N(C)C(=O)C3(F)CCN(C(=O)C#CC(C)(C)N(C)C)CC3)C(=O)N3CCCC(N3)C(=O)OCC(C)(C)C2)C1?
**A.** IC50 (second compound 0.000949 µM): > 1000 nM; IC50 (second compound 0.003 µM): > 1000 nM; IC50 (second compound 0.00949 µM): > 1000 nM; IC50 (second compound 0.03 µM): > 1000 nM; IC50 (second compound 0.0949 µM): > 1000 nM; IC50 (second compound 0.3 µM): < 3.16 nM; viability, T/C (second compound 0.000949 µM, first compound 0.00316 µM): 103%; viability, T/C (second compound 0.000949 µM, first compound 0.01 µM): 111%; viability, T/C (second compound 0.000949 µM, first compound 0.0316 µM): 91.9%; viability, T/C (second compound 0.000949 µM, first compound 0.1 µM): 81.8%; viability, T/C (second compound 0.000949 µM, first compound 0.316 µM): 79.4%; viability, T/C (second compound 0.000949 µM, first compound 1 µM): 80.5%; viability, T/C (second compound 0.003 µM, first compound 0.00316 µM): 101%; viability, T/C (second compound 0.003 µM, first compound 0.01 µM): 97.3%; viability, T/C (second compound 0.003 µM, first compound 0.0316 µM): 81.1%; viability, T/C (second compound 0.003 µM, first compound 0.1 µM): 104%; viability, T/C (second compound 0.003 µM, first compound 0.316 µM): 111%; viability, T/C (second compound 0.003 µM, first compound 1 µM): 76.8%; viability, T/C (second compound 0.00949 µM, first compound 0.00316 µM): 101%; viability, T/C (second compound 0.00949 µM, first compound 0.01 µM): 97.2%; viability, T/C (second compound 0.00949 µM, first compound 0.0316 µM): 93%; viability, T/C (second compound 0.00949 µM, first compound 0.1 µM): 108%; viability, T/C (second compound 0.00949 µM, first compound 0.316 µM): 82.4%; viability, T/C (second compound 0.00949 µM, first compound 1 µM): 94.8%; viability, T/C (second compound 0.03 µM, first compound 0.00316 µM): 96.9%; viability, T/C (second compound 0.03 µM, first compound 0.01 µM): 98%; viability, T/C (second compound 0.03 µM, first compound 0.0316 µM): 95.5%; viability, T/C (second compound 0.03 µM, first compound 0.1 µM): 75.4%; viability, T/C (second compound 0.03 µM, first compound 0.316 µM): 81.2%; viability, T/C (second compound 0.03 µM, first compound 1 µM): 79%; viability, T/C (second compound 0.0949 µM, first compound 0.00316 µM): 90.7%; viability, T/C (second compound 0.0949 µM, first compound 0.01 µM): 86.8%; viability, T/C (second compound 0.0949 µM, first compound 0.0316 µM): 86.3%; viability, T/C (second compound 0.0949 µM, first compound 0.1 µM): 90.1%; viability, T/C (second compound 0.0949 µM, first compound 0.316 µM): 84.8%; viability, T/C (second compound 0.0949 µM, first compound 1 µM): 74.8%; viability, T/C (second compound 0.3 µM, first compound 0.00316 µM): 54.6%; viability, T/C (second compound 0.3 µM, first compound 0.01 µM): 40%; viability, T/C (second compound 0.3 µM, first compound 0.0316 µM): 56.4%; viability, T/C (second compound 0.3 µM, first compound 0.1 µM): 54.7%; viability, T/C (second compound 0.3 µM, first compound 0.316 µM): 59.8%; viability, T/C (second compound 0.3 µM, first compound 1 µM): 54.5%
